This note sets out measurements from US12312292B2, “Long chain alkyl esteramine lipid compound, preparation method therefor and application thereof in nucleic acid delivery” (RinuaGene Biotechnology Co., Ltd., priority 2022, dated 2025).

Molecules are shown by their SMILES.

For one series, the system named is luciferase mRNA. The series can be described thus: Detection of reporter gene (luciferase mRNA) expression in mice in vivo. Set-up: species or system BALB/c female mice. Conditions: LNP-delivered luciferase mRNA, quadriceps muscle injection, IVIS 24 h after injection; dose (5 or 14 μg mRNA) not given. The protocol: The prepared LNP-encapsulated mRNA solution was diluted with PBS buffer to obtain the solution for injection. BALB/c female mice at about 20 g were injected with injection solution at the quadriceps muscle site of mice with an insulin syringe, and each mouse was injected with 50 μL. Two doses were designed: one dose of “5 μg mRNA per 50 μL of injection solution” and the other dose of “14 μg mRNA per 50 μL of injection solution”. BALB/c female mice at about 20 g are injected with PBS buffer at the quadriceps muscle site of mice with an insulin syringe, and each mouse was injected with 50 μL.
After the mice were injected for 24 h, in vivo expression of Luciferase was detected with Perkinelmer's IVIS. The substrate was D-luciferin Sodium salt (GOLDBIO, LUCNA-1G), which was formulated into a concentration of 15 mg/mL with normal saline, filtered and sterilized with a 0.22 μm filter membrane, and stored at −20° C. in aliquots protected from light. Before imaging, each mouse at about 20 g was intraperitoneally injected with 200 μL of substrate solution for 10-20 minutes, and then was anesthetized with isoflurane gas and placed prone on the imaging plate to detect the fluorescence of the animal in vivo, and the results are shown in Table 2.
Molecule `CCCCCCCCCCCOC(=O)CCCCCN(CCCCCCCC(=O)OC(CCCCCCCC)CCCCCCCC)C1(CO)CC1` [Example 14] had an Average fluorescence intensity of 1.91E+03 P/s/cm^2/sr.
For the molecule `CCCCCCCCCCCOC(=O)CCCCCN(CCCCCCCC(=O)OC(CCCCCCCC)CCCCCCCC)CC1(O)CC1` [Example 13], the Average fluorescence intensity is recorded as 2.78E+05 P/s/cm^2/sr.
Take `CCCCCCCCCCCOC(=O)CCCCCN(CCCCCCCC(=O)OC(CCCCCCCC)CCCCCCCC)CC(F)(F)CO` [Example 11]: the Average fluorescence intensity turned out to be 1.39E+03 P/s/cm^2/sr.
As for `CCCCCCCCCCCOC(=O)CCCCCN(CCCCCO)CCCCCCCC(=O)OC(CCCCCCCC)CCCCCCCC` [Example 1], the Average fluorescence intensity turned out to be 1.218E+06 P/s/cm^2/sr.
The molecule `CCCCCCCCCCCOC(=O)CCCCCN(CCCCCCCCCCCCO)CCCCCCCC(=O)OC(CCCCCCCC)CCCCCCCC` [Example 7] showed an Average fluorescence intensity of 4.73E+05 P/s/cm^2/sr.
The same measure, in the same setting: the value for `CCCCCCCCCCCOC(=O)CCCCCN(CCCCCCCCCCO)CCCCCCCC(=O)OC(CCCCCCCC)CCCCCCCC` [Example 6] was 5.08E+05 P/s/cm^2/sr; that for `CCCCCCCCCCCOC(=O)CCCCCN(CCCCCCCC(=O)OC(CCCCCCCC)CCCCCCCC)C(C)CCCO` (stereo not shown) [Example 8] was 1.17E+03 P/s/cm^2/sr.
Consider `CCCCCCCCCCCOC(=O)CCCCCN(CCCCCCCC(=O)OC(CCCCCCCC)CCCCCCCC)C(C)CCO` (stereo not shown) [Example 9], for which the Average fluorescence intensity was found to be 3.74E+05 P/s/cm^2/sr.
Molecule `CCCCCCCCCCCOC(=O)CCCCCN(CCCCCCCC(=O)OC(CCCCCCCC)CCCCCCCC)CC(C)(C)CO` [Example 10] yielded an Average fluorescence intensity of 7.37E+03 P/s/cm^2/sr.
Consider `CCCCCCCCCCCOC(=O)CCCCCN(CCCCCCCC(=O)OC(CCCCCCCC)CCCCCCCC)CC1(CO)CCC1` [Example 15], for which the Average fluorescence intensity stood at 1.57E+03 P/s/cm^2/sr.
As for `CCCCCCCCCCCOC(=O)CCCCCN(CCCCCCCO)CCCCCCCC(=O)OC(CCCCCCCC)CCCCCCCC` [Example 3], the Average fluorescence intensity is reported as 8.55E+05 P/s/cm^2/sr.
The molecule `CCCCCCCCCCCOC(=O)CCCCCN(CCCCCCCCO)CCCCCCCC(=O)OC(CCCCCCCC)CCCCCCCC` [Example 4] returned an Average fluorescence intensity of 5.47E+05 P/s/cm^2/sr.
`CCCCCCCCCCCOC(=O)CCCCCN(CCCCCCCCCO)CCCCCCCC(=O)OC(CCCCCCCC)CCCCCCCC` [Example 5] registered an Average fluorescence intensity of 5.67E+05 P/s/cm^2/sr.
Still for that read-out and setting: for `CCCCCCCCCCCOC(=O)CCCCCN(CCCCCCCC(=O)OC(CCCCCCCC)CCCCCCCC)CC1(CO)CC1` [Example 12] the value was 3.62E+03 P/s/cm^2/sr.

For a further series, the system named is BALB/c female mice. The series can be described thus: Acute toxicity analysis of lipid molecules (cationic lipid LNP) in BALB/c female mice. Conditions: high dose group, 150 μg LNP/pc; blood 24 h after injection; Ave(SD).
With `CCCCCCCCCCCOC(=O)CCCCCN(CCCCCCCC(=O)OC(CCCCCCCC)CCCCCCCC)CC1(O)CC1` [Example 13], the Alanine aminotransferase came out at 39.99 U/L, the “Alkaline phosphatase (ALP)” value is 109.84 U/L, the Aspartate aminotransferase stood at 126.77 U/L and the Creatinine worked out at 12.4 µmol/L. The “Total bilirubin (TBIL)” value is 1.34 and the “γ-Glutamyltransferase (GGT)” value is on record as 0.18 (0.18) U/L.
Regarding `CCCCCCCCCCCOC(=O)CCCCCN(CCCCCO)CCCCCCCC(=O)OC(CCCCCCCC)CCCCCCCC` [Example 1], the Alanine aminotransferase is given as 38.16 U/L, the “Alkaline phosphatase (ALP)” value is 112.7 U/L, the Aspartate aminotransferase is given as 125.26 U/L and the Creatinine turned out to be 12.4 µmol/L. Moreover, the “Total bilirubin (TBIL)” value stood at 1.56 and the “γ-Glutamyltransferase (GGT)” value is 0.12 (0.12) U/L.
As to `CCCCCCCCCCCOC(=O)CCCCCN(CCCCCCCCCCCCO)CCCCCCCC(=O)OC(CCCCCCCC)CCCCCCCC` [Example 7], the Alanine aminotransferase was 39.92 U/L, the “Alkaline phosphatase (ALP)” value is reported as 103.8 U/L, the Aspartate aminotransferase amounted to 138.44 U/L and the Creatinine came to 12.2 µmol/L. Besides, the “Total bilirubin (TBIL)” value came out at 1.35 and the “γ-Glutamyltransferase (GGT)” value is 0.22 (0.04) U/L.
For `CCCCCCCCCCCOC(=O)CCCCCN(CCCCCCCC(=O)OC(CCCCCCCC)CCCCCCCC)C(C)CCO` (stereo not shown) [Example 9], the Alanine aminotransferase is recorded as 37.25 U/L, the “Alkaline phosphatase (ALP)” value is 116.9 U/L, the Aspartate aminotransferase was 128.26 U/L and the Creatinine stood at 12.1 µmol/L. For the same molecule, the “Total bilirubin (TBIL)” value was found to be 1.43 and the “γ-Glutamyltransferase (GGT)” value is recorded as 0.18 (0.15) U/L.

Staying with this series, now noted: low dose group, 50 μg/pc; blood 24 h after injection; Ave(SD).
Turning to `CCCCCCCCCCCOC(=O)CCCCCN(CCCCCCCC(=O)OC(CCCCCCCC)CCCCCCCC)CC1(O)CC1` [Example 13], the Alanine aminotransferase is on record as 36.19 (3.01) U/L, the “Alkaline phosphatase (ALP)” value is given as 111.74 U/L, the Aspartate aminotransferase is 110.27 U/L and the Creatinine was 13.5 µmol/L. Further, the “Total bilirubin (TBIL)” value is recorded as 1.18 (0.23) and the “γ-Glutamyltransferase (GGT)” value is given as 0.38 (0.41) U/L.
Consider `CCCCCCCCCCCOC(=O)CCCCCN(CCCCCO)CCCCCCCC(=O)OC(CCCCCCCC)CCCCCCCC` [Example 1], for which the Alanine aminotransferase is recorded as 33.46 (3.54) U/L, the “Alkaline phosphatase (ALP)” value worked out at 114.38 U/L, the Aspartate aminotransferase came to 109.92 U/L and the Creatinine is 13.8 µmol/L. Besides, the “Total bilirubin (TBIL)” value is on record as 1.18 (0.13) and the “γ-Glutamyltransferase (GGT)” value is on record as 0.22 (0.33) U/L.
Regarding `CCCCCCCCCCCOC(=O)CCCCCN(CCCCCCCCCCCCO)CCCCCCCC(=O)OC(CCCCCCCC)CCCCCCCC` [Example 7], the Alanine aminotransferase is recorded as 33.56 (5.17) U/L, the “Alkaline phosphatase (ALP)” value is given as 107.58 U/L, the Aspartate aminotransferase came out at 109.54 U/L and the Creatinine amounted to 13.6 µmol/L. In addition, the “Total bilirubin (TBIL)” value was 1.18 (0.16) and the “γ-Glutamyltransferase (GGT)” value is 0.06 (0.12) U/L.
For the molecule `CCCCCCCCCCCOC(=O)CCCCCN(CCCCCCCC(=O)OC(CCCCCCCC)CCCCCCCC)C(C)CCO` (stereo not shown) [Example 9], the Alanine aminotransferase was 35.44 (3.67) U/L, the “Alkaline phosphatase (ALP)” value was found to be 115.29 U/L, the Aspartate aminotransferase turned out to be 107.55 U/L and the Creatinine was determined as 14.2 µmol/L. Further, the “Total bilirubin (TBIL)” value is recorded as 1.21 (0.19) and the “γ-Glutamyltransferase (GGT)” value was 0.24 (0.37) U/L.

Tested on in the next series: not listed separately
The series can be described thus: In vivo expression distribution analysis of delivered luciferase mRNA (RT-PCR in tissues). Further details: species or system C57BL/6J mice. As to conditions: compared with SM-102; single intramuscular injection 50 μg. The procedure:
In order to investigate the distribution features of lipid-delivering mRNA in vivo, we analyzed the distribution features of the reporter luciferase mRNA of the compounds of the present invention in C57BL/6J mice after administration by a single intramuscular injection. The experimental 10 C57BL/6J mice were enrolled, male and female, each administered 50 μg, with SM102 as the control.
Animals in the negative control group were collected at 2 h and 336 h after administration, and animals in the test group were collected at 2 h, 6 h, 24 h, 48 h, 72 h, 120 h, 168 h, and 336 h after administration whole blood, bone marrow, liver, spleen, heart, kidney, inguinal lymph nodes, mesenteric lymph nodes, spleen, brain, stomach, small intestine, non-injection site muscle, injection site muscle tissue, etc. The RNA content in the samples at each time point was detected by RT-PCR, and the lower limit of quantification of the method was […] to reflect the distribution features in C57BL/6J mice.
Take `CCCCCCCCCCCOC(=O)CCCCCN(CCCCCCCC(=O)OC(CCCCCCCC)CCCCCCCC)CC1(O)CC1` [Example 13]: the “Level (distribution) of delivered mRNA in the stomach” value was “relatively higher level”.
The same measure, in the same setting: for `CCCCCCCCCCCOC(=O)CCCCCN(CCCCCCCCCCCCO)CCCCCCCC(=O)OC(CCCCCCCC)CCCCCCCC` [Example 7] the value was “higher distribution”.
With `CCCCCCCCCCCOC(=O)CCCCCN(CCCCCCCC(=O)OC(CCCCCCCC)CCCCCCCC)C(C)CCO` (stereo not shown) [Example 9], the “Level of delivered mRNA in the small intestine” value is reported as “relatively higher level”.

Still in this series, the particulars now being: compared with SM-102; single intramuscular injection 50 μg; listed as compound 7.
In the case of `CCCCCCCCCCCOC(=O)CCCCCN(CCCCCCCCCCCCO)CCCCCCCC(=O)OC(CCCCCCCC)CCCCCCCC` [Example 7], the “Level (distribution) of delivered mRNA in the stomach” value was “relatively higher level”.

Still in this series, the particulars now being: delivered luciferase mRNA, single intramuscular injection 50 μg, 2 h-336 h, RT-PCR.
Take `CCCCCCCCCCCOC(=O)CCCCCN(CCCCCCCC(=O)OC(CCCCCCCC)CCCCCCCC)CC1(O)CC1` [Example 13]: the “Exposure in tissues and organs, from high to low” value (from here on “Exposure in tissues and organs”) is “inguinal lymph nodes, injection site muscles, non-injection site muscles, whole blood, spleen, bone marrow, mesenteric lymph nodes, heart, liver, kidneys, stomach, small intestine and brain”.
For `CCCCCCCCCCCOC(=O)CCCCCN(CCCCCO)CCCCCCCC(=O)OC(CCCCCCCC)CCCCCCCC` [Example 1], the “Exposure in tissues and organs” value is “injection site muscle, inguinal lymph nodes, whole blood, spleen, non-injection site muscle, bone marrow, heart, liver, mesenteric lymph nodes, kidney, small intestine and brain”.
Take `CCCCCCCCCCCOC(=O)CCCCCN(CCCCCCCCCCCCO)CCCCCCCC(=O)OC(CCCCCCCC)CCCCCCCC` [Example 7]: the “Exposure in tissues and organs” value is “injection site muscle, inguinal lymph nodes, whole blood, spleen, non-injection site muscle, bone marrow, heart, liver, mesenteric lymph nodes, kidney, small intestine and brain”.
Turning to `CCCCCCCCCCCOC(=O)CCCCCN(CCCCCCCC(=O)OC(CCCCCCCC)CCCCCCCC)C(C)CCO` (stereo not shown) [Example 9], the “Exposure in tissues and organs” value is “inguinal lymph nodes, injection site muscles, non-injection site muscles, whole blood, spleen, bone marrow, mesenteric lymph nodes, heart, liver, kidney, small intestine, stomach and brain”.
